These results are taken from ChEMBL document CHEMBL1201862, “PubChem BioAssay data set” (2004).

The source made the active and inactive calls. A value given as a limit tells only on which side of the number the result lay.

In assay [1] the target is T1, Long-chain-fatty-acid--AMP ligase FadD28 (Mycobacterium tuberculosis, UniProt P9WQ59).
T1 sequence (P9WQ59 whole entry): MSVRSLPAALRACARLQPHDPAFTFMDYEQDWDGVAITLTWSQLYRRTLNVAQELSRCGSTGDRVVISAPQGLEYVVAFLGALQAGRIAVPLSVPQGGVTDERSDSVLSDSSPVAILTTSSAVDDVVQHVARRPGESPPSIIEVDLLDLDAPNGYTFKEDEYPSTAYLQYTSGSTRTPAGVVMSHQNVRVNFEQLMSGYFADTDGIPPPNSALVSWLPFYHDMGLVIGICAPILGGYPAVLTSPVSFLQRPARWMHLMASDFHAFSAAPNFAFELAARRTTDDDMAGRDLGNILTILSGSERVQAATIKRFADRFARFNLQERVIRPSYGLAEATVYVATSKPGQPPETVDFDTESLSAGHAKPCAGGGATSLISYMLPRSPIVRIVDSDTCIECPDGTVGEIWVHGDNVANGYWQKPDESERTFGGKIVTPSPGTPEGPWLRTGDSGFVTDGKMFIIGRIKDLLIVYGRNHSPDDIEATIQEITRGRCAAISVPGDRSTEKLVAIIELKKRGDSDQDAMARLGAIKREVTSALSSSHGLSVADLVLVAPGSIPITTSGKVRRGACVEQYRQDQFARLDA
As to the kind of experiment: Fluorescence polarization aasay to screen for inhibitors that compete for the binding of FadD28 to a bisubstrate Measured in Biochemical System Using Plate Reader - 2147-01_Inhibitor_Dose_CherryPick_Activity. Type of assay: functional, Mycobacterium tuberculosis H37Rv. (In fluorescence polarisation assays a small probe gives low polarisation when free and higher when bound to something large.)

In assay [2] the target is Voltage-dependent T-type calcium channel subunit alpha-1H (Homo sapiens, UniProt O95180). In kind it is functional.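 Also: channel activity triggered by adding a high calcium stimulation buffer.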
Assay [3] has as its target Alkaline phosphatase, placental type (Homo sapiens, UniProt P05187). Kind of assay: PLAP enzyme inhibitors, confirmation, biochemical, luminescence (AID 1512). Type of assay: functional.
In assay [4] the target is Glyceraldehyde-3-phosphate dehydrogenase (Homo sapiens, UniProt P04406).
The target in assay [5] is T2, Alkaline phosphatase, tissue-nonspecific isozyme (Homo sapiens, UniProt P05186).
T2 sequence (P05186 whole entry): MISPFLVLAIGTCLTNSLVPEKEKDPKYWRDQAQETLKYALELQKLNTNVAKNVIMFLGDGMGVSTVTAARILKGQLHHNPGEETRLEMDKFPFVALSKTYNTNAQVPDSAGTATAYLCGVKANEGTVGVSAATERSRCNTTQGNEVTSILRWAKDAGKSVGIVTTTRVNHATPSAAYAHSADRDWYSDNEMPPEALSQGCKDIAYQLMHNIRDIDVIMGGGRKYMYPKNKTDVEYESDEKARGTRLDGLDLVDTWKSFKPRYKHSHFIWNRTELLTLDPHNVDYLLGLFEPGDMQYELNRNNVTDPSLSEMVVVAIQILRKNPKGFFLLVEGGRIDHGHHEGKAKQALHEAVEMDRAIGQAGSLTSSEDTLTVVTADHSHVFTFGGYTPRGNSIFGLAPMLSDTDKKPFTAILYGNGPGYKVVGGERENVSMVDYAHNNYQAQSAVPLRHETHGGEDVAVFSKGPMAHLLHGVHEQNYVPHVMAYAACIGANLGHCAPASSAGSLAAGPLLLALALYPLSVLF
Kind of assay: human TNAP enzyme inhibitors, SAR follow-up, biochemical, luminescent, dose response (AID 1056).

Assay [6] has as its target DNA damage-inducible transcript 3 protein (Mus musculus, UniProt P35639). Type of assay: functional, Cricetulus griseus.
The target of assay [7] is DNA dC->dU-editing enzyme APOBEC-3G (Homo sapiens, UniProt Q9HC16). Kind of assay: Dose Response confirmation of small molecule APOBEC3G DNA Deaminase Inhibitors via a fluorescence-based single-stranded DNA deaminase assay. [Related pubchem assays (depositor defined):AID493012, AID493028]. Type of assay: functional.
The target in assay [8] is Eukaryotic translation initiation factor 4E (Mus musculus, UniProt P63073). Kind of assay: eIF4E–eIF4G protein interaction inhibitors, dose response, biochemical, TR-FRET (AID 855).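 Also: potency for disrupting eIF4E binding to eIF4GI seen as loss of FRET.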 Type of assay: functional. On the technique in general: Time-resolved FRET reads energy transfer from a long-lived donor to a nearby acceptor.
The target in assay [9] is G-protein coupled receptor 55 (Homo sapiens, UniProt Q9Y2T6). Kind of assay: GPR55 agonists via beta-arrestin recruitment, primary screen, imaging, U2OS cells, beta-arrestin-GFP redistribution (AID 1961). Type of assay: functional. In general terms: Arrestin recruitment assays detect the binding of arrestin to an activated receptor.
Assay [10] deals with H4. As to the kind of experiment: Luminescence Cell-Based Dose Response HTS to Identify Activators of 5'UTR Stem-Loop Driven Prion Protein mRNA Translation in H4 Neuroglioblastoma Cells. [Related pubchem assays: 1829 (Project Summary), 1814 (Primary HTS)]. In kind it is functional. As to conditions: Homo sapiens.
Assay [11] in a line: Luminescence Cell-Based Dose Response HTS to Identify Activators of Luciferase Translation or Activity in H4 […] Cells. [Related pubchem assays: 1829 (Project Summary), 1814 (Primary HTS)]. Type of assay: functional.
Assay [12] can be described thus: Luminescence Cell-Based Dose Confirmation HTS to Identify Activators of 5'UTR Stem-Loop Driven Alpha-Synuclein mRNA Translation in H4 Neuroglioblastoma Cells. [Related pubchem assays: 1829 (Project Summary), 1814 (Primary HTS)]. In kind it is functional.
Assay [13] has as its system HEK293. Kind of assay: NOD1 signaling inhibitors, primary screen, cell-based, luminescence, uHTS (AID 1578). Type of assay: functional. As to conditions: Homo sapiens.
In assay [14] the test system is HEK293. Kind of assay: cells. As to conditions: Homo sapiens. Type of assay: functional, cell-based.
Assay [15] concerns HEK293. Kind of assay: cells. In kind it is functional, cell-based. As to conditions: Homo sapiens. This is another data set of the same source.
The target in assay [16] is Nucleotide-binding oligomerization domain-containing protein 2 (Homo sapiens, UniProt Q9HC29). As to the kind of experiment: NOD2 signaling inhibitors, cell-based, luminescence, uHTS, HEK293 (AID 1566). Type of assay: functional.
In assay [17] the test system is HEK293. Kind of assay: NOD2 signaling inhibitors in MDP-stimulated cells, cell-based, uHTS, luminescence (AID 2001). Type of assay: functional. As to conditions: Homo sapiens.
Assay [18] deals with HEK293. Kind of assay: cells. Type of assay: functional, cell-based. As to conditions: Homo sapiens. This is another data set of the same source.
Assay [19] addresses X-box-binding protein 1 (Homo sapiens, UniProt P17861). In kind it is functional, Cricetulus griseus.
For assay [20], the target named is T3, Protein skinhead-1 (Caenorhabditis elegans, UniProt P34707).
T3 sequence (P34707 whole entry): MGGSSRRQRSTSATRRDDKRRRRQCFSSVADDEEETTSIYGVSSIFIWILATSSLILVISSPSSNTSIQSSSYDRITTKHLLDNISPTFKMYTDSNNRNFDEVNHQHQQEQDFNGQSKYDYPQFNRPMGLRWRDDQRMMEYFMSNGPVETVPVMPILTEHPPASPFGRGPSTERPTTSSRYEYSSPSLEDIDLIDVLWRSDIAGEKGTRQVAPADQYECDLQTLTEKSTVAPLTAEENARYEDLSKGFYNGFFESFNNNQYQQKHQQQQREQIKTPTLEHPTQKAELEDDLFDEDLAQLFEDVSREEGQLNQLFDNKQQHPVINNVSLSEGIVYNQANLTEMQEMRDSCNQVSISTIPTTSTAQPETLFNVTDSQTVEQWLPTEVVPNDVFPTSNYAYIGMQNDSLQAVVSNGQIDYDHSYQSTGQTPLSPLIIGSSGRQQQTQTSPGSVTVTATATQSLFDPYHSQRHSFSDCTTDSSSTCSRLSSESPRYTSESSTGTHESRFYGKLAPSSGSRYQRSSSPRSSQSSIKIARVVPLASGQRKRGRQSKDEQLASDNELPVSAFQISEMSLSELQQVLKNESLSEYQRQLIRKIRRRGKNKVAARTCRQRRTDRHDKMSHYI
In kind it is functional.

Assay [21] deals with Streptococcus. Kind of assay: Group A Streptococcus viability loss, dose response, counter-screen for streptokinase expression inhibitor project, luminescence, BacTiterGlo (AID 1915).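 Also: potency for reduction of bacterial viability or growth.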 In kind it is functional, organism-based.
The target in assay [22] is T4, Streptokinase A (Streptococcus pyogenes serotype M1, UniProt P10520).
T4 sequence (P10520 whole entry): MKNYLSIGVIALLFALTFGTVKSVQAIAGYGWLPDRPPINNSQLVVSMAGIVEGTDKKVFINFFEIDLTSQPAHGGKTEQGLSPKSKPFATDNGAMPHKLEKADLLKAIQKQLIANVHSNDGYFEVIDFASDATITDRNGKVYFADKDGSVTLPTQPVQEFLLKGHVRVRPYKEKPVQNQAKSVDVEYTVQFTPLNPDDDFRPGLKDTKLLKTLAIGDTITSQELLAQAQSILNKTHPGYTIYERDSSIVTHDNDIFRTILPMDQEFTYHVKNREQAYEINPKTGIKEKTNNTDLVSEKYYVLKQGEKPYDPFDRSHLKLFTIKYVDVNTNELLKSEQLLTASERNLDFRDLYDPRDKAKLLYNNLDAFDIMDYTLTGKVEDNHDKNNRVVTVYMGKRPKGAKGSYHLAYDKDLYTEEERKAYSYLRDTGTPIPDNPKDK
Kind of assay: S. pyogenes streptokinase expression inhibitors, potency, dose response, plasminogen activation absorbance, OD405 (AID 1914).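 Also: secreted streptokinase activity via plasminogen activation per viability signal from cell pellet.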 In kind it is functional, Streptococcus pyogenes M1 GAS.

The test system of assay [23] is Streptococcus sp. 'group A'. As to the kind of experiment: growth inhibition of control SK(-) GAS strain, dose response, counter-screen for streptokinase expression inhibitor project, luminescence, kanamycin, BacTiterGlo, confirmation (AID 1900). In kind it is functional, organism-based.
Assay [24] concerns the target Mucolipin-3 (Homo sapiens, UniProt Q8TDD5). Kind of assay: Fluorescence counterscreen assay for […] agonists: dose response cell-based high-throughput screening assay to identify agonists of the transient receptor potential channel ML3 (TRPML3). [Related pubchem assays: 1424, 1448 ]. Type of assay: functional.
The target in assay [25] is Ion channel NompC (Danio rerio, UniProt Q7T1G6). As to the kind of experiment: Dose response cell-based high-throughput screening assay for agonists of the transient receptor potential channel N1 (TRPN1). [Related pubchem assays (depositor defined):AID1424, AID1448]. In kind it is functional.
Assay [26] concerns the target Intestinal-type alkaline phosphatase (Homo sapiens, UniProt P09923). As to the kind of experiment: Dose Response confirmation of uHTS hits from a small molecule inhibitors of human intestinal alkaline phosphatase via a luminescent assay. [Related pubchem assays (depositor defined):AID2544, AID2574]. In kind it is functional.
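For Absolute IC50 (XBP1) in this document: confirmatory dose-response counter-screen serving a CHOP assay.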

Sequence of Glyceraldehyde-3-phosphate dehydrogenase (P04406 whole entry): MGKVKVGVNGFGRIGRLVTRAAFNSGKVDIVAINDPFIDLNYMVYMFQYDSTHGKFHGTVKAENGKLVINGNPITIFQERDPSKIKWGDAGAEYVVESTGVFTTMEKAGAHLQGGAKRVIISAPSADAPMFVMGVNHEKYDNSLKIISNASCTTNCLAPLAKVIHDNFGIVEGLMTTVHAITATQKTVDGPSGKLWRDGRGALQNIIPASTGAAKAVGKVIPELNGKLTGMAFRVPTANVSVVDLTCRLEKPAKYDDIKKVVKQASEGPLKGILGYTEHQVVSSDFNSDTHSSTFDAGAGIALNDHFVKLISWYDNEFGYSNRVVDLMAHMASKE
Sequence of Eukaryotic translation initiation factor 4E (P63073 whole entry): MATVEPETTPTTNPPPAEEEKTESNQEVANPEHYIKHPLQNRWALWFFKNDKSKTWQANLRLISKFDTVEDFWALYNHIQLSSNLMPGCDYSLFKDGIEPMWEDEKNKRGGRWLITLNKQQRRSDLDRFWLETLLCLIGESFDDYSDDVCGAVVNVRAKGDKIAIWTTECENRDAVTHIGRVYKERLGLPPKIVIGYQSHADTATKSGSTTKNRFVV
Sequence of Voltage-dependent T-type calcium channel subunit alpha-1H (O95180 whole entry): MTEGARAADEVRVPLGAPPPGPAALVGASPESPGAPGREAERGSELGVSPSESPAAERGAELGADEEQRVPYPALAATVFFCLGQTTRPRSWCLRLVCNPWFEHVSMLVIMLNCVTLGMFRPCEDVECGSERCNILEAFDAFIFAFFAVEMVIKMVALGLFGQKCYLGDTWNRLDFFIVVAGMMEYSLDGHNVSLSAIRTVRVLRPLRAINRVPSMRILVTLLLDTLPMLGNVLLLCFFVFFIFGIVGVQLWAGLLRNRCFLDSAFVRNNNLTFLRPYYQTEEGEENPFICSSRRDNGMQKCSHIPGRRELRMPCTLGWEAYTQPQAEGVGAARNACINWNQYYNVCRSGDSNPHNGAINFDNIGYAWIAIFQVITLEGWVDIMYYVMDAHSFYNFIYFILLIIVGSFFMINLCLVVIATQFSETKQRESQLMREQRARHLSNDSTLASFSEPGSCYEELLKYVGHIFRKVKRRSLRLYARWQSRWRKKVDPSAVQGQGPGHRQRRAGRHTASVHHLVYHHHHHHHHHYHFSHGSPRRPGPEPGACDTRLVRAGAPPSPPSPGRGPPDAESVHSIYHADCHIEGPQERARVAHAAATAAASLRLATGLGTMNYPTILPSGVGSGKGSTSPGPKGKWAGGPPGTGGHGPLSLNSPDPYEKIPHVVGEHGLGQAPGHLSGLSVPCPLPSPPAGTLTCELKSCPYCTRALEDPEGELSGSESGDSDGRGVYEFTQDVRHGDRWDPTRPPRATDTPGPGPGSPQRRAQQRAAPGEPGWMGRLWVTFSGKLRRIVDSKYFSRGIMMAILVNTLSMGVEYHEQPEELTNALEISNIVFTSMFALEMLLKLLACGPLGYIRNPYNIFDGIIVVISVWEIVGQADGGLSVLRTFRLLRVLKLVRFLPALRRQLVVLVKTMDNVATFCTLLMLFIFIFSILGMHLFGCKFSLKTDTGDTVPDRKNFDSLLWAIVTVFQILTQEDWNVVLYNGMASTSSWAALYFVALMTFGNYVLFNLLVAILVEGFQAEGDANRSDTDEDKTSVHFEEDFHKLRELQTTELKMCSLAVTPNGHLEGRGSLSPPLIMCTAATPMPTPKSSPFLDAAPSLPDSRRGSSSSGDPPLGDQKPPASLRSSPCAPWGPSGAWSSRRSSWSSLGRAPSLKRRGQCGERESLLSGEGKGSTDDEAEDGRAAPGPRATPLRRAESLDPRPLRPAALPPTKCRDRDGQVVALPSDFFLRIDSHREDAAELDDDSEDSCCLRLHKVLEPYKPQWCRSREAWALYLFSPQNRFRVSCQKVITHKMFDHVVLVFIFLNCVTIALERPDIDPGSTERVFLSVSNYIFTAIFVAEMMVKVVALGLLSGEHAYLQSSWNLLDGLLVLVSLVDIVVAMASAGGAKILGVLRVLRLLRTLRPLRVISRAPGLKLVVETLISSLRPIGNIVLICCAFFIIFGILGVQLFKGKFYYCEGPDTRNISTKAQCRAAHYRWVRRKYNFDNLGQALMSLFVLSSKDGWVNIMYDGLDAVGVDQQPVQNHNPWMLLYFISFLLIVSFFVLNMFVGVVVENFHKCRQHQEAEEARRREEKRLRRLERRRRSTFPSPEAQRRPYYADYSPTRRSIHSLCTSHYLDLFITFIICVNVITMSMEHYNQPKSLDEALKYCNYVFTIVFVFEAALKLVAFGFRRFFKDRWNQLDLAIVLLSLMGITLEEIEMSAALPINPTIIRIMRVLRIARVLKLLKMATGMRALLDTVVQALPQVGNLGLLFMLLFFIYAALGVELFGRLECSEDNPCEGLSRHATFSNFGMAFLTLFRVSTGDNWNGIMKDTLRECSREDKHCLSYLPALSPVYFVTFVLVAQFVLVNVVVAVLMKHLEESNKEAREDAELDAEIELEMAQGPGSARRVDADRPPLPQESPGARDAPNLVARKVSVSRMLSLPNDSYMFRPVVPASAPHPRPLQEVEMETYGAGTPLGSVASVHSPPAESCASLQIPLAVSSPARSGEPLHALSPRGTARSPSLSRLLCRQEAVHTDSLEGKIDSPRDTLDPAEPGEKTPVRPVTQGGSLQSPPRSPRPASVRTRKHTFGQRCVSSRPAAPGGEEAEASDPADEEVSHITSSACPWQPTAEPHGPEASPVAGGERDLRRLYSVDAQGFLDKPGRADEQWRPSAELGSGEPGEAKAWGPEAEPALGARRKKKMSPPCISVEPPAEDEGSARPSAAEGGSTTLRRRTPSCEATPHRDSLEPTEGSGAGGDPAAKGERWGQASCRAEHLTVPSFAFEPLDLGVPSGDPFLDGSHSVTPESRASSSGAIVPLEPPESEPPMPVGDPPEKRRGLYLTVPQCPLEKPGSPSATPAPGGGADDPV
Sequence of Nucleotide-binding oligomerization domain-containing protein 2 (Q9HC29 whole entry, the tested form may be a part): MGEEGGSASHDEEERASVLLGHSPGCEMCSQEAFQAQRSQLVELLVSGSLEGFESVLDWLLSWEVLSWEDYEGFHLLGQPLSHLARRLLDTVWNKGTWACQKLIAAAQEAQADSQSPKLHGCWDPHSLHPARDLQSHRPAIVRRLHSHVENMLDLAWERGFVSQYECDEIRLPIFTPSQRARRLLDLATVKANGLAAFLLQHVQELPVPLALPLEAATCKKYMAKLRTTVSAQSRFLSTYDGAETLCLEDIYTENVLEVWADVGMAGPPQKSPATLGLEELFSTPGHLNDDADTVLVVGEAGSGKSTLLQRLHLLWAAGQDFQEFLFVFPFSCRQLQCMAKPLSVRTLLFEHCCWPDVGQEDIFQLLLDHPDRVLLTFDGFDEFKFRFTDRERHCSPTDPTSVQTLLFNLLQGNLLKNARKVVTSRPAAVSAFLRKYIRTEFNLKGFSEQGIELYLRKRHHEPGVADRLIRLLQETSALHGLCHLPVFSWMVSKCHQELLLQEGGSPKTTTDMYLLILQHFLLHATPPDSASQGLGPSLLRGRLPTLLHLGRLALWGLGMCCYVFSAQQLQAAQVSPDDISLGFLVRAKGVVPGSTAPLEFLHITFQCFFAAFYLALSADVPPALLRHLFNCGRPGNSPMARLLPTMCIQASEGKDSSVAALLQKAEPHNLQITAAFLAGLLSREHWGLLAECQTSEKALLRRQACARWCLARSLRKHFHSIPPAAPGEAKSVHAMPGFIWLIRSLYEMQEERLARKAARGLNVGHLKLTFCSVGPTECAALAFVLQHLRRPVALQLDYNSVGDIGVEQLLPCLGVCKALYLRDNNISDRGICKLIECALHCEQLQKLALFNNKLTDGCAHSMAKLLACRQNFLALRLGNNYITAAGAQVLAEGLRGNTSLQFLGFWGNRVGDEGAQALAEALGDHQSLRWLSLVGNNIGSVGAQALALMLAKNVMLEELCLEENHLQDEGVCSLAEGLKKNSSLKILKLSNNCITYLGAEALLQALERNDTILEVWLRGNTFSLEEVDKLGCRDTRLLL
Sequence of DNA damage-inducible transcript 3 protein (P35639 whole entry): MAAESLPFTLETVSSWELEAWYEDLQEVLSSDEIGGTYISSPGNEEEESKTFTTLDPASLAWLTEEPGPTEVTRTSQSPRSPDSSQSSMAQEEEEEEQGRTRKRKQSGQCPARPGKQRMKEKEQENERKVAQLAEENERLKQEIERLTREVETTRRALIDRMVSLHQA
Sequence of X-box-binding protein 1 (P17861 whole entry): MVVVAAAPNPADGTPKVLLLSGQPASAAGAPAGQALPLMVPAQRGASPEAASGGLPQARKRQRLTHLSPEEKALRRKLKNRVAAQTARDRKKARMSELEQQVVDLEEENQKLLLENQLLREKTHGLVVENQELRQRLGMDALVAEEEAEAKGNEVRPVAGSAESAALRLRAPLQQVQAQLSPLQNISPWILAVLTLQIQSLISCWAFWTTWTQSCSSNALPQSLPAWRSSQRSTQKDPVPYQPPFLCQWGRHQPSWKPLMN
Sequence of G-protein coupled receptor 55 (Q9Y2T6 whole entry): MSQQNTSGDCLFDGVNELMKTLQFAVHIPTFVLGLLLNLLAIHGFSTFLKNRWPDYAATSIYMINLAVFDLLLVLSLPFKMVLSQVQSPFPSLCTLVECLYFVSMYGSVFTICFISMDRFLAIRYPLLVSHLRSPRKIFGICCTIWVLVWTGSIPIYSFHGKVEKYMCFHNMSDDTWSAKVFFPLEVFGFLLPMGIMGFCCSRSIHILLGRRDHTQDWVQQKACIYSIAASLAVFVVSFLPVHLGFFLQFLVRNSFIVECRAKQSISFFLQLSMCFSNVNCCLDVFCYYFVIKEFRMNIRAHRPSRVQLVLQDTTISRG

Take `CC(C)(C)c1csc(NC(=O)Cn2c(=O)oc3ccccc32)n1`: in assay [1], the AC50 was > 100 µM (inactive). In addition, in [2], the concentration giving a half-maximal response (EC50) was 1.5 µM (active).

On to `COc1ccc2[nH]c(SCC(=O)c3ccc(O)c(O)c3)nc2c1`, for which the IC50 in assay [3] is 6.17 µM (active); in assay [4] it was > 100 µM (not active); in assay [5], 19.3 µM (active).

As to `COc1ccc(Cc2nc3ccccc3n2CC(=O)N/N=C/c2ccc(C)cc2O)cc1OC`, in assay [6], the “Absolute IC50 (CHOP)” value is 10 µM.

With `Cc1ccc(-n2c(N)c(C(N)=O)sc2=S)cc1`, the values for the IC50 in [7] and in assay [8] were 55.1 µM (active) and > 64 µM (inactive), respectively.

On to `CC1=NN(c2ccc(C(=O)O)cc2)C(=O)/C1=C/c1ccc(-c2ccccc2F)o1`, for which the EC50 in [9] was 21.3 µM (inactive); in assay [10], > 120 µM (not active); in assay [11], > 120 µM (not active); in assay [12], > 120 µM (not active).

With `C[C@H](NC(=O)c1ccccc1Cl)C(=O)OC(C(=O)Nc1cc(C(F)(F)F)ccc1Cl)c1ccccc1` (stereo partly specified), the EC50 in assay [2] is 4.07 µM (active).

Consider `O=C(CN1C(=O)c2cccnc2Oc2ccc(Cl)cc21)NCCCc1ccccc1`, for which the EC50 in assay [13] and in assay [16] was > 20 µM (inactive) throughout. Further, the IC50 in assay [14], in assay [15], in [17] and in [18] was > 20 µM (inactive) in each case.

As to `O=[N+]([O-])c1ccc(O)c(/C=N/Nc2ccccc2Cl)c1`, the “Absolute IC50 (XBP1)” value in assay [19] came to 10 µM. In addition, the “Absolute IC50 (CHOP)” value in [6] was found to be 10 µM.

`O=C(/C=C\c1ccco1)Nc1nc(-c2ccc3ccccc3c2)cs1`: the IC50 in assay [20] is > 100 µM (inactive); in assay [14], 7.24 µM (active); in assay [15], > 20 µM (inactive); in assay [17] it was 3.88 µM (inactive); in assay [18] it was 3.56 µM (active). For the same compound, the EC50 in assay [13] is > 20 µM (inactive); in assay [21], 73.7 µM (active); in [22], > 150 µM (not active); in assay [16], > 20 µM (inactive); in assay [23], 7.52 µM (active).

Consider `COc1cccc(S(=O)(=O)Nc2cccnc2)c1`, for which the figures for the IC50 in assay [4] and in assay [5] were > 100 µM (not active) and > 100 µM (inactive), respectively.

Turning to `COc1ccccc1N(CC(=O)NC(C)(C)C)S(=O)(=O)c1cccs1`, the EC50 is > 29.9 µM (not active) in assay [24] and > 29.9 µM (inactive) in [25].

As for `N#Cc1c(-c2ccccc2)nc(N2CCOCC2)[nH]c1=O`, the IC50 in assay [26] is > 100 µM (inactive).

In the case of `CCCCCCSc1nsc(NC(=O)CCC)n1`, the “Absolute IC50 (XBP1)” value in [19] came out at 10 µM.

`C[N+](C)(C)c1ccc(/C=N/Nc2nc(Cl)c(C#N)c(Cl)c2Cl)cc1`: the EC50 in [21], in assay [22] and in assay [23] was > 150 µM (not active) in each case. Besides, the IC50 in assay [8] was > 64 µM (inactive).

For orientation: AC50 means the midpoint of the concentration-response curve, whichever way the signal moves. Usually EC50 stands for the concentration at which the effect is half-maximal. By IC50 is commonly meant the concentration that gives 50% inhibition.
